Measurements as given in patent publication EP0326331B1, “Substituted quinolines and cinnolines” (Dow AgroSciences LLC, priority 1988, dated 1989).

What was measured:
Format in all cases: in vivo
[1] = test system: Erysiphe graminis tritici (powdery mildew); assay: Test 1 greenhouse foliar spray screen, powdery mildew on wheat; conditions: disease control rating, foliar spray on wheat, 400 ppm (+++ at 100 ppm)
[2] = test system: Pyricularia oryzae (rice blast); assay: whole plant or invertebrate; conditions: disease control rating, foliar spray on rice, 400 ppm (+++ at 100 ppm)
[3] = test system: Puccinia recondita tritici (leaf rust); assay: Test 1 greenhouse foliar spray screen, leaf rust on wheat; conditions: disease control rating, foliar spray on wheat, 400 ppm (+++ at 100 ppm)
[4] = test system: Botrytis cinerea (gray mold); assay: Test 1 greenhouse foliar spray screen, gray mold on grape berries; conditions: disease control rating, spray on grape berries, 400 ppm (+++ at 100 ppm)
[5] = test system: Pseudoperonospora cubensis (downy mildew); assay: Test 1 greenhouse foliar spray screen, downy mildew on squash; conditions: for DOWN MDEW: disease control rating, foliar spray on squash, 400 ppm (+++ at 100 ppm)
[6] = test system: Cercospora beticola (leaf spot); assay: Test 1 greenhouse foliar spray screen, leaf spot on sugar beet; conditions: disease control rating, foliar spray on sugar beet, 400 ppm (+++ at 100 ppm)
[7] = test system: Venturia inaequalis (apple scab); assay: Test 1 greenhouse foliar spray screen, apple scab on apple seedling; conditions: disease control rating, foliar spray on apple seedling, 400 ppm (+++ at 100 ppm)
[8] = test system: Septoria tritici (leaf blotch); assay: Test 1 greenhouse foliar spray screen, leaf blotch on wheat; conditions: disease control rating, foliar spray on wheat, 400 ppm (+++ at 100 ppm)
[9] = test system: southern armyworm (Spodopetra eridania Cramer); assay: Mite/insect screen, SAW; conditions: percent mortality, SAW; for mortality at 200 ppm / mortality at 400 ppm: Spodoptera eridania, read-out: SAW RESULTS %; for mortality at 200 ppm / SAW RESULTS %: SM & MA RATE 200 PPM; for mortality at 400 ppm: SM & MA RATE 400 PPM
Procedure, shortened: (§1)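 Compounds dissolved in acetone/alcohol (50:50) with TOXIMUL R and S emulsifiers, diluted in water to test concentrations, and sprayed to runoff on both leaf surfaces at 10 psi, then dried 1 h. For armyworm, excised treated leaves were offered to larvae; percent mortality scored after standard exposure periods.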

[10] = test system: Twospotted spider mites (Tetranychus urticae Koch); assay: Mite/insect screen, SM; conditions: for mortality at 200 ppm / mortality at 400 ppm: Tetranychus urticae, read-out: SM RESULTS %; for mortality at 200 ppm / SM RESULTS % / mortality at 400 ppm: percent mortality, SAW; for mortality at 200 ppm / SM RESULTS %: SM & MA RATE 200 PPM; for activity as miticides: summary statement in the description; for mortality at 400 ppm: SM & MA RATE 400 PPM
Procedure, shortened: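 Compounds dissolved in 50:50 acetone/alcohol containing sulfonate/nonionic emulsifier blends, then diluted with water to the indicated concentrations. Leaves sprayed on both surfaces to runoff at 10 psi and dried one hour. Percent mortality scored after standard exposure periods.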

[11] = test system: melon aphids (Aphis gossypii Glover); assay: Mite/insect screen, MA; conditions: percent mortality, SAW; for mortality at 200 ppm / mortality at 400 ppm: Aphis gossypii, read-out: MA RESULTS %; for mortality at 200 ppm / MA RESULTS %: SM & MA RATE 200 PPM; for mortality at 400 ppm: SM & MA RATE 400 PPM
Procedure, shortened: as §1

corn rootworm = assay: Mite/insect screen, CRW; conditions: percent mortality; for mortality at 12 ppm / CRW RESULTS %: CRW RATE 12.00 PPM; for mortality at 12 ppm / mortality at 24 ppm: read-out: CRW RESULTS %; for mortality at 24 ppm: CRW RATE 24.00 PPM
Procedure, shortened: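 Compounds dissolved in 50:50 acetone/alcohol with TOXIMUL R and S emulsifiers (23 and 13 g/L), then diluted in water to the stated test concentrations. Percent mortality of corn rootworm scored after standard exposure periods.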

| Structure (SMILES) | POWD MDEW [1] | RICE BLAST [2] | LEAF RUST [3] | GRAY MOLD [4] | DOWN MDEW [5] | LEAF SPOT [6] | APPL SCAB [7] | LEAF BLOT [8] | mortality at 200 ppm [9] [%] | mortality at 200 ppm [10] [%] | mortality at 200 ppm [11] [%] | mortality at 12 ppm (corn rootworm) [%] | further results |
| --- | --- | --- | --- | --- | --- | --- | --- | --- | --- | --- | --- | --- | --- |
| Clc1cc(NCCc2ccccc2)c2cccc(Cl)c2n1 [Example 93, 2,8-dichloro-N-(2-phenylethyl)-4-quinolinamine] | - (0-19% control at 400 ppm) | - (0-19% control at 400 ppm) | - (0-19% control at 400 ppm) | - (0-19% control at 400 ppm) | - (0-19% control at 400 ppm) | + (20-89% control at 400 ppm) | - (0-19% control at 400 ppm) | + (20-89% control at 400 ppm) | 0 | 0 | 0 | 0 | – |
| Fc1cccc2c(NCCc3ccc(Br)cc3)ccnc12 [Example 94, N-[2-(4-bromophenyl)ethyl]-8-fluoro-4-quinolinamine] | + (20-89% control at 400 ppm) | +++ (90-100% control at 100 ppm) | +++ (90-100% control at 100 ppm) | - (0-19% control at 400 ppm) | +++ (90-100% control at 100 ppm) | +++ (90-100% control at 100 ppm) | - (0-19% control at 400 ppm) | + (20-89% control at 400 ppm) | 0 | 0 | 0 | 100 | activity as miticides [10]: particularly excellent activity |
| Fc1cccc2c(NCCc3cccc(C(F)(F)F)c3)ccnc12 [Example 95, 8-fluoro-N-[2-[3-(trifluoromethyl)phenyl]ethyl]-4-quinolinamine] | + (20-89% control at 400 ppm) | ++ (90-100% control at 400 ppm) | +++ (90-100% control at 100 ppm) | + (20-89% control at 400 ppm) | +++ (90-100% control at 100 ppm) | + (20-89% control at 400 ppm) | + (20-89% control at 400 ppm) | +++ (90-100% control at 100 ppm) | 20 | 0 | 0 | 0 | activity against downy mildew ([5]; summary statement in the description): particularly excellent activity; SAW RESULTS % [9]: 40%; SM RESULTS % [10]: 0%; MA RESULTS % [11]: 0%; CRW RESULTS % (corn rootworm): 0% |
| Fc1cccc2c(NCCc3ccc(Cl)cc3)ccnc12 [Example 96, N-[2-(4-chlorophenyl)ethyl)-8-fluoro-4-quinolinamine] | + (20-89% control at 400 ppm) | +++ (90-100% control at 100 ppm) | +++ (90-100% control at 100 ppm) | - (0-19% control at 400 ppm) | +++ (90-100% control at 100 ppm) | +++ (90-100% control at 100 ppm) | - (0-19% control at 400 ppm) | +++ (90-100% control at 100 ppm) | 100 | 0 | 0 | 0 | SAW RESULTS % [9]: 100%; SM RESULTS % [10]: 0%; activity as miticides [10]: particularly excellent activity; MA RESULTS % [11]: 0%; CRW RESULTS % (corn rootworm): 0% |
| Fc1cccc2c(NCCc3ccc(Cl)cc3Cl)cc(Cl)nc12 [Example 98, 2-chloro-N-[2-(2,4-dichlorophenyl)ethyl]-8-fluoro-4-quinolinamine] | - (0-19% control at 400 ppm) | + (20-89% control at 400 ppm) | ++ (90-100% control at 400 ppm) | - (0-19% control at 400 ppm) | ++ (90-100% control at 400 ppm) | - (0-19% control at 400 ppm) | - (0-19% control at 400 ppm) | - (0-19% control at 400 ppm) | 0 | 0 | 0 | 0 | – |
| FC(F)(F)c1cccc2c(NCCc3ccccc3)ccnc12 [Example 99, N-(2-phenylethyl)-8-(trifluoromethyl)-4-quinolinamine] | - (0-19% control at 400 ppm) | ++ (90-100% control at 400 ppm) | +++ (90-100% control at 100 ppm) | - (0-19% control at 400 ppm) | +++ (90-100% control at 100 ppm) | + (20-89% control at 400 ppm) | - (0-19% control at 400 ppm) | - (0-19% control at 400 ppm) | 0 | 0 | 0 | 0 | – |
| Clc1ccc2c(NCCc3ccc(Cl)c(Cl)c3)ccnc2c1 [Example 101, 7-chloro-N-[2-(3,4-dichlorophenyl)ethyl]-4-quinolinamine] | +++ (90-100% control at 100 ppm) | - (0-19% control at 400 ppm) | + (20-89% control at 400 ppm) | - (0-19% control at 400 ppm) | +++ (90-100% control at 100 ppm) | +++ (90-100% control at 100 ppm) | + (20-89% control at 400 ppm) | - (0-19% control at 400 ppm) | 0 | 0 | 0 | 0 | mortality at 400 ppm [9]: 0%; mortality at 400 ppm [10]: 0%; mortality at 400 ppm [11]: 0%; mortality at 24 ppm (corn rootworm): 0% |
| Fc1cccc(Cl)c1CCNc1ccnc2c(F)cccc12 [Example 103, N-[2-(2-chloro-6-fluorophenyl)ethyl]-8-fluoro-4-quinolinamine] | + (20-89% control at 400 ppm) | ++ (90-100% control at 400 ppm) | ++ (90-100% control at 400 ppm) | - (0-19% control at 400 ppm) | +++ (90-100% control at 100 ppm) | + (20-89% control at 400 ppm) | +++ (90-100% control at 100 ppm) | + (20-89% control at 400 ppm) | 0 | 0 | 0 | 0 | mortality at 400 ppm [9]: 0%; mortality at 400 ppm [10]: 0%; mortality at 400 ppm [11]: 0%; mortality at 24 ppm (corn rootworm): 0% |
